What is called IC50 is the midpoint of a concentration-inhibition curve. A higher IC50 goes with lower potency.

From patent US20260115185A1, “QUINOLINE DERIVATIVES WHICH ACT AS KAPPA-OPIOID RECEPTOR ANTAGONISTS” (The Scripps Research Institute, priority 2023, published 2026) come the findings set out here.

The target in assay [1] is T1, kappa opioid receptor (KOR) (Homo sapiens, UniProt P41145).
T1 construct: host or cells: U2OS (Tango OPRK1-bla U2OS)
Briefly: OPRKappa 1 Tango B-Arrestin Assay, antagonist mode (Tango OPRK1-bla U2OS cells, U50488 EC80 challenge). The class given is cell-based. The note with it: for Selectivity (MOR/KOR): Kappa selectivity, MOR IC50 / KOR IC50; for IC50: antagonist mode, Tango OPRK1-bla U2OS cells, 6 nM U50488 challenge. An outline of the steps:
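Tango OPRK1-bla U2OS cells, β-arrestin recruitment read as β-lactamase FRET (CCF4-AM, 460/590 nm emission). Compounds, 10-point 1:3 series from nominal 10 µM in quadruplicate, preincubated 30 min at 37 °C, then challenged with U50488 at 6 nM final (EC80) for 4 h; percent inhibition from median ratio.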

The target in assay [2] is T2, mu opioid receptor (MOR) (Homo sapiens, UniProt P35372).
T2 construct: host or cells: U2OS (Discover X OPRMu1-U2OS, PathHunter)
As to the kind of experiment: OPRMu1 Discover X β-arrestin Assay, antagonist mode (U2OS cells, DAMGO EC80 challenge). The class given is cell-based. An outline of the steps:
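PathHunter U2OS cells with β-gal fragment-complementation readout for β-arrestin recruitment to OPRMu1. Cells were preincubated with compound (10-point, 1:3 series from nominal 10 micromolar) for 30 min at 37 °C, then challenged with 303 nM DAMGO (EC80) for 3 h. Luminescence gave percent inhibition.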

T2 sequence (P35372 whole entry): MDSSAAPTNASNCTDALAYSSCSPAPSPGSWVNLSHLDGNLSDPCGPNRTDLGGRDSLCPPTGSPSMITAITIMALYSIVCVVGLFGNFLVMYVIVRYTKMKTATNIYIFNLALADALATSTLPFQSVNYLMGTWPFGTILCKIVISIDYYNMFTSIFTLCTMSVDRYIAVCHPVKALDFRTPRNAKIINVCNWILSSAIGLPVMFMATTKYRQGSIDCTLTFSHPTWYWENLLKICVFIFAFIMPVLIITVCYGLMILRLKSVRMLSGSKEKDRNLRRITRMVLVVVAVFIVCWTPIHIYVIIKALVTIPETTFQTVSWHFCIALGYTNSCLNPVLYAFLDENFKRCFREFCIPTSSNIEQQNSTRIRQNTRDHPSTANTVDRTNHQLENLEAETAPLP
T1 sequence (P41145 whole entry): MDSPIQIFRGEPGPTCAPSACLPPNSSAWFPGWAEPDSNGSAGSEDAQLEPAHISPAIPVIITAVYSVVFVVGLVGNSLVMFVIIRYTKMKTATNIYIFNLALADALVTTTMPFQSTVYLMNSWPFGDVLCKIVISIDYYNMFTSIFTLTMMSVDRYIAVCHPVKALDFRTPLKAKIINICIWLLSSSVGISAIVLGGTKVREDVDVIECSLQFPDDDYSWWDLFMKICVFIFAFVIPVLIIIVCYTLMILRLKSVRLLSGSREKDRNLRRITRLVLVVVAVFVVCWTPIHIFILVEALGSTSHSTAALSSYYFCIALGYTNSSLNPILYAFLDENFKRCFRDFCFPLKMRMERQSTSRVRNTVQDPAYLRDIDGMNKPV

For the compound `CCc1cc(F)c2nc(N3CCN(C(=O)C(C)(C)N4CCCC4)C[C@H]3C)c(-c3nc(C)no3)c(C)c2c1` [Compound 153], in assay [1], the “Selectivity (MOR/KOR)” value is listed as “+++ (between 100- to 1000-fold selective)” and the 50% inhibitory concentration (IC50) lay within 1 to 10 nM. The compound further came in with a half-inhibitory concentration (IC50) in assay [2] above 1000 nM.
Taken in the same sequence, the figures for `CCc1cc(F)c2nc(N3CCN(C(=O)[C@@H](C)N(CC)CC)C[C@H]3C)c(-c3nc(C)no3)c(C)c2c1` [Compound 155] were “+++ (between 100- to 1000-fold selective)”, 1 to 10 nM and above 1000 nM.
Take `CCc1cc(F)c2nc(N3CCN(C(=O)CN4CCC(F)(F)CC4)C[C@H]3C)c(-c3nc(C)no3)c(C)c2c1` [Compound 156]: in assay [1], the “Selectivity (MOR/KOR)” value is “++ (between 10- and 100-fold selectivity)”; the concentration for half-maximal inhibition (IC50) is 1 to 10 nM. Further, the IC50 in assay [2] lay in the range of 100 to 1000 nM.
For the compound `CCc1cc(F)c2nc(N3CCN(C(=O)[C@H](C)N(CC)CC)C[C@H]3C)c(-c3nc(C)no3)c(C)c2c1` [Compound 158], in assay [1], the “Selectivity (MOR/KOR)” value was “++++ (more than 1000-fold selectivity over MOR)” and the IC50 fell in the range of 1 to 10 nM. In assay [2], this compound showed a concentration for half-maximal inhibition (IC50) above 1000 nM.
On the same counts, the results for `CCc1cc(F)c2nc(N3CCN(C(=O)[C@@H]4C[C@@H](O)CN4C)C[C@H]3C)c(-c3nc(C)no3)c(C)c2c1` [Compound 160] are “+++ (between 100- to 1000-fold selective)”, 10 to 100 nM and above 1000 nM.
Taken in the same sequence, the figures for `CCc1cc(F)c2nc(N3[C@H](C)CN(C(=O)CN4CCCC4)C[C@H]3C)c(-c3nc(C)no3)c(C)c2c1` [Compound 161] were “+++ (between 100- to 1000-fold selective)”, below 1 nM and 100 to 1000 nM.
On the same counts, the results for `CCc1cc(F)c2nc(N3CCN(C(=O)[C@H](CO)N(C)C)C[C@H]3C)c(-c3nc(C)no3)c(C)c2c1` [Compound 162] are “+++ (between 100- to 1000-fold selective)”, 1 to 10 nM and above 1000 nM.
`CCc1cc(F)c2nc(N3CCN(C(=O)[C@H](C)N(CC)CC)C[C@H]3C)c(-c3cc(C)no3)c(C)c2c1` [Compound 164]: in assay [1], the “Selectivity (MOR/KOR)” value is on record as “+++ (between 100- to 1000-fold selective)” and the concentration for half-maximal inhibition (IC50) was 10 to 100 nM. This compound also had an IC50 in assay [2] above 1000 nM.
For `CCc1cc(F)c2nc(N3CCN(C(=O)[C@@H]4CCCN4C)C[C@H]3C)c(-c3cc(C)no3)c(C)c2c1` [Compound 165], the “Selectivity (MOR/KOR)” value in assay [1] was “+++ (between 100- to 1000-fold selective)”. In addition, the IC50 in assay [1] is 10 to 100 nM; in assay [2], above 1000 nM.
With `CCc1cc(F)c2nc(N3CCN(C(=O)CN(CC)CC)C[C@H]3C)c(-c3cc(C)no3)c(C)c2c1` [Compound 166], the “Selectivity (MOR/KOR)” value in assay [1] is “+++ (between 100- to 1000-fold selective)”. Moreover, the 50% inhibitory concentration (IC50) in assay [1] was 1 to 10 nM; in assay [2], above 1000 nM.
For `CCc1cc(F)c2nc(N3CCN(C(=O)[C@@H]4C[C@@H](O)CN4C)C[C@H]3C)c(-c3cc(C)no3)c(C)c2c1` [Compound 167], in assay [1], the “Selectivity (MOR/KOR)” value is given as “+++ (between 100- to 1000-fold selective)” and the half-inhibitory concentration (IC50) is 1 to 10 nM. Further, in assay [2], the IC50 was above 1000 nM.
Taken in the same sequence, the figures for `CCc1cc(F)c2nc(N3CCN(C(=O)[C@H](CO)N(C)C)C[C@H]3C)c(-c3cc(C)no3)c(C)c2c1` [Compound 168] were “+++ (between 100- to 1000-fold selective)”, 1 to 10 nM and above 1000 nM.
As for `CCc1cc(F)c2nc(N3CCN(C(=O)C(C)(C)N4CCCC4)C[C@H]3C)c(-c3ccn(C)n3)c(C)c2c1` [Compound 169], in assay [1], the “Selectivity (MOR/KOR)” value is “++ (between 10- and 100-fold selectivity)”; the IC50 lay within 1 to 10 nM. The same compound displayed an IC50 in assay [2] above 1000 nM.
On to `CCc1cc(F)c2nc(N3CCN(C(=O)[C@@H](C)N(CC)CC)C[C@H]3C)c(-c3ccn(C)n3)c(C)c2c1` [Compound 170], for which, in assay [1], the “Selectivity (MOR/KOR)” value is recorded as “+++ (between 100- to 1000-fold selective)” and the IC50 was in the range of 10 to 100 nM. Besides, the concentration for half-maximal inhibition (IC50) in assay [2] is above 1000 nM.
On the same counts, the results for `CCc1cc(F)c2nc(N3CCN(C(=O)CN(C)C)C[C@H]3C)c(-c3ccn(C)n3)c(C)c2c1` [Compound 171] are “+++ (between 100- to 1000-fold selective)”, 10 to 100 nM and above 1000 nM.
Taken in the same sequence, the figures for `CCc1cc(F)c2nc(N3CCN(C(=O)CN4CCCC4)C[C@H]3C)c(-c3ccn(C)n3)c(C)c2c1` [Compound 173] were “+++ (between 100- to 1000-fold selective)”, 1 to 10 nM and 100 to 1000 nM.
Take `CCc1cc(F)c2nc(N3CCN(C(=O)[C@H](C)N(CC)CC)C[C@H]3C)c(-c3ccn(C)n3)c(C)c2c1` [Compound 174]: in assay [1], the “Selectivity (MOR/KOR)” value is “+++ (between 100- to 1000-fold selective)” and the concentration for half-maximal inhibition (IC50) lay within 10 to 100 nM. For the same compound, the IC50 in assay [2] is above 1000 nM.
On the same counts, the results for `CCc1cc(F)c2nc(N3CCN(C(=O)[C@@H]4CCCN4C)C[C@H]3C)c(-c3ccn(C)n3)c(C)c2c1` [Compound 175] are “+++ (between 100- to 1000-fold selective)”, 10 to 100 nM and above 1000 nM.
On the same counts, the results for `CCc1cc(F)c2nc(N3CCN(C(=O)CN(CC)CC)C[C@H]3C)c(-c3ccn(C)n3)c(C)c2c1` [Compound 176] are “+++ (between 100- to 1000-fold selective)”, 1 to 10 nM and above 1000 nM.
For the compound `CCc1cc(F)c2nc(N3CCN(C(=O)[C@@H]4C[C@@H](O)CN4C)C[C@H]3C)c(-c3ccn(C)n3)c(C)c2c1` [Compound 177], the “Selectivity (MOR/KOR)” value in assay [1] was “+++ (between 100- to 1000-fold selective)”. Further, the IC50 in assay [1] is at least 100 nM; in assay [2], above 1000 nM.
On to `CCc1cc(F)c2nc(N3CCN(C(=O)[C@H](CO)N(C)C)C[C@H]3C)c(-c3ccn(C)n3)c(C)c2c1` [Compound 178], for which the “Selectivity (MOR/KOR)” value in assay [1] is “+++ (between 100- to 1000-fold selective)”. Besides, the results for the IC50 in assay [1] and in assay [2] were 10 to 100 nM and above 1000 nM, respectively.
For the compound `CCc1cc(F)c2nc(N3CCN(C(=O)C(C)(C)N4CCCC4)C[C@H]3C)c(-c3cc(C)no3)c(C)c2c1` [Compound 179], in assay [1], the “Selectivity (MOR/KOR)” value was “++ (between 10- and 100-fold selectivity)”; the IC50 lay within 10 to 100 nM. Besides, in assay [2], the IC50 was above 1000 nM.
Regarding `CCc1cc(F)c2nc(N3CCN(C(=O)[C@@H](C)N(CC)CC)C[C@H]3C)c(-c3cc(C)no3)c(C)c2c1` [Compound 180], in assay [1], the “Selectivity (MOR/KOR)” value was “+++ (between 100- to 1000-fold selective)” and the IC50 was 1 to 10 nM. For the same compound, in assay [2], the IC50 was above 1000 nM.
On the same counts, the results for `CCc1cc(F)c2nc(N3CCN(C(=O)CN(C)C)C[C@H]3C)c(-c3cc(C)no3)c(C)c2c1` [Compound 181] are “+++ (between 100- to 1000-fold selective)”, 10 to 100 nM and above 1000 nM.
Regarding `CCc1cc(F)c2nc(N3CCN(C(=O)[C@H]4CCCN4C)C[C@H]3C)c(-c3nc(C)no3)c(C)c2c1` [Compound 183], in assay [1], the “Selectivity (MOR/KOR)” value is on record as “++++ (more than 1000-fold selectivity over MOR)” and the IC50 was in the range of 1 to 10 nM. In assay [2], this compound yielded a half-inhibitory concentration (IC50) above 1000 nM.
On the same counts, the results for `CCc1cc(F)c2nc(N3CCN(C(=O)[C@H]4COCCN4C)C[C@H]3C)c(-c3nc(C)no3)c(C)c2c1` [Compound 184] are “+++ (between 100- to 1000-fold selective)”, 10 to 100 nM and above 1000 nM.
Taken in the same sequence, the figures for `CCc1cc(F)c2nc(N3CCN(C(=O)[C@@H]4COCCN4C)C[C@H]3C)c(-c3nc(C)no3)c(C)c2c1` [Compound 185] were “+++ (between 100- to 1000-fold selective)”, 10 to 100 nM and above 1000 nM.
Taken in the same sequence, the figures for `CCc1cc(F)c2nc(N3CCN(CCC4CC(F)(F)C4)C[C@H]3C)c(-c3nc(C)no3)c(C)c2c1` [Compound 186] were “+++ (between 100- to 1000-fold selective)”, 1 to 10 nM and 100 to 1000 nM.
As for `CCc1cc(F)c2nc(N3CCC(OCCN4CCCC4)CC3)c(-c3nc(C)no3)c(C)c2c1` [Compound 187], in assay [1], the “Selectivity (MOR/KOR)” value is listed as “+++ (between 100- to 1000-fold selective)” and the IC50 fell in the range of 10 to 100 nM. The IC50 in assay [2] was above 1000 nM.
Taken in the same sequence, the figures for `CCc1cc(F)c2nc(N3CCN(C(=O)[C@@H]4CCCCN4C)C[C@H]3C)c(-c3nc(C)no3)c(C)c2c1` [Compound 188] were “+++ (between 100- to 1000-fold selective)”, 10 to 100 nM and above 1000 nM.
On the same counts, the results for `CCc1cc(F)c2nc(N3CCN(C(=O)[C@H]4CCCCN4C)C[C@H]3C)c(-c3nc(C)no3)c(C)c2c1` [Compound 189] are “++++ (more than 1000-fold selectivity over MOR)”, 1 to 10 nM and above 1000 nM.
With `CCc1cc(F)c2nc(N3CCN(C(=O)CCN4CCCC4)C[C@H]3C)c(-c3nc(C)no3)c(C)c2c1` [Compound 190], in assay [1], the “Selectivity (MOR/KOR)” value is “++ (between 10- and 100-fold selectivity)”; the IC50 lay within 1 to 10 nM. The compound also yielded an IC50 in assay [2] of 100 to 1000 nM.
As to `CCc1cc(F)c2nc(N3CCN(C(=O)[C@H](C)N4CCCC4)C[C@H]3C)c(-c3nc(C)no3)c(C)c2c1` [Compound 191], in assay [1], the “Selectivity (MOR/KOR)” value is on record as “++++ (more than 1000-fold selectivity over MOR)” and the IC50 is 1 to 10 nM. The compound also had an IC50 in assay [2] above 1000 nM.
